Assay results taken from article PMC11280343, “Rubus urticifolius Compounds with Antioxidant Activity, and Inhibition Potential against Tyrosinase, Melanin, Hyaluronidase, Elastase, and Collagenase” (Pharmaceuticals, 2024).
Like-named read-outs stand apart in the source and are kept apart here.

Key:
[1] = NR viability assay, THP-1; format: cell-based, Homo sapiens; details: human
Description: The HEK001 (Homo sapiens cutaneous keratinocyte, CCL-2404), WS1 (Homo sapiens cutaneous fibroblast, CRL-1502), HMCB (Homo sapiens cutaneous melanoma, CRL-9607), and THP-1 (Homo sapiens peripheral blood monocyte, TIB-202) cell lines used in this study were obtained from the American Type Culture Collection (ATCC, Manassas, VA, USA). Cultivated in a Roswell Park Memorial Institute (RPMI) 1640 medium (RPMI 1640 Merck, Cat. No. R7755, New York, NY, USA) supplemented with 2 mM L-glutamine (≥99% Merck, Cat. No. 56-85-9), 10% fetal bovine serum (FBS Merck, Cat. No. TMS-016, St. Louis, MO, USA), and 10,000 units of penicillin and 10 mg streptomycin/mL (Merck, Cat. No. P4333, St. Louis, MO, USA) in culture flasks, the cells were maintained in an incubator under normoxic conditions (20–21% O2) and a humidified atmosphere (5% CO2 at 37 °C).
Mother solutions of samples (extracts, fractions, and compounds) were prepared at a concentration of […] using dimethyl sulfoxide (DMSO ≥ 99.9% Merck, Cat. No. 67-68-5, St. Louis, MO, USA) as the solvent. From these mother solutions, dilutions were prepared at concentrations ranging from 100 to 0.20 μg/mL or μM in culture medium containing 0.5% DMSO. Additionally, a negative control group consisting solely of culture medium with 0.5% DMSO was included to assess its potential cytotoxic effect on the cells.
Cell viability was evaluated using a colorimetric assay in 96-well plates, employing 3-amino-7-dimethylamino-2-methylphenazine hydrochloride salt reagent (NR, Merck, Cat. No. 553-24-2, St. Louis, MO, USA).
HEK001, WS1, HMCB, and THP-1 cell lines were cultured in 96-well plates at 37 °C with 5% CO2 until > 90% confluency was achieved (1 × 10^6 cells/well). Subsequently, the cultures were treated with sample dilutions (100–0.20 μg/mL or μM) for 72 h at 37 °C with 5% CO2 in phenol red-free RPMI. The supernatant was then discarded and the cells were washed with phosphate-buffered saline (PBS) before being incubated with […] NR (50 μg/mL; 173 μM) for 3 h at 37 °C with 5% CO2. NR labelling was performed after DMSO treatment. After incubation, the labelled sample dilutions were rapidly washed with a fixative solution composed of 1% calcium chloride (CaCl2 Merck, Cat. No. 10043-52-4, St. Louis, MO, USA) and 0.5% formaldehyde solution (≥36.0% in H2O Merck, Cat. No. 50-00-0, St. Louis, MO, USA), then diluted with 100 μL of the NR extraction solution. Finally, the plates were read at 540 nm using a microplate reader (Anthos 2020, version 2.0.5, Biochrom Ltd., Cambridge, UK).

tyrosinase in HMCB cells = target: T1, tyrosinase in HMCB cells (Homo sapiens, UniProt P14679); assay: Cellular tyrosinase assay (L-DOPA as substrate); format: cell-based
T1 construct: endogenous in cells; host or cells: HMCB cells
T1 sequence (P14679 19-529): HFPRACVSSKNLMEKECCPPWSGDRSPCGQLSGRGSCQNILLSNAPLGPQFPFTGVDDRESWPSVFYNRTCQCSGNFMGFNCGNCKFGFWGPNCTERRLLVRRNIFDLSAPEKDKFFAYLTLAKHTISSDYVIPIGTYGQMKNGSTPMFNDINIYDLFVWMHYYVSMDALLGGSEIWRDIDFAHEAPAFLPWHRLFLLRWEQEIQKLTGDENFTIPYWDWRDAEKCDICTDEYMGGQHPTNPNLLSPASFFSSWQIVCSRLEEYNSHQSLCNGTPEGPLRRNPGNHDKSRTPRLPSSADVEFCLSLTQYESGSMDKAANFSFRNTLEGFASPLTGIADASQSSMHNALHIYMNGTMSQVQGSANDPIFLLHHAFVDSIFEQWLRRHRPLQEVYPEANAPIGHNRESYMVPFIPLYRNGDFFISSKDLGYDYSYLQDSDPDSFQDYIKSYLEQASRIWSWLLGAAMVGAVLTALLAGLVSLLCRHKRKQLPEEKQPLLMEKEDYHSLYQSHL
Description: (§1) To determine the anti-tyrosinase activity of the samples (at the same concentration as in the viability assay), tyrosinase inhibition assay was used, following the protocol carried out by Apaza Ticona et al.. HMCB cells were cultured in 96-well plates (1 × 10^6 cells/well). […] Absorbance was measured at 475 nm using a microplate reader.

NF-κB [2] = assay: NF-κB inhibition assay (LPS-stimulated), THP-1; format: cell-based; details: Homo sapiens, read-out: NF-κB Inhibition at 72 h IC50 ± SEM
Description: as §1, with “anti-inflammatory” for “anti-tyrosinase”, “NF-κB” for “tyrosinase”, “Cells” for “HMCB cells”, “450” for “475”

NF-κB [3] = assay: NF-κB inhibition assay (LPS-stimulated), HEK001; format: cell-based; details: Homo sapiens, read-out: NF-κB Inhibition at 72 h IC50 ± SEM
Description: as §1, with “anti-inflammatory” for “anti-tyrosinase”, “NF-κB” for “tyrosinase”, “Cells” for “HMCB cells”, “450” for “475”

NF-κB [4] = assay: NF-κB inhibition assay (LPS-stimulated), WS1; format: cell-based; details: Homo sapiens, 72 h, read-out: NF-κB Inhibition at 72 h IC50 ± SEM
Description: as §1, with “anti-inflammatory” for “anti-tyrosinase”, “NF-κB” for “tyrosinase”, “Cells” for “HMCB cells”, “450” for “475”

NF-κB [5] = assay: NF-κB inhibition assay (LPS-stimulated), HMCB; format: cell-based; details: Homo sapiens, 72 h, read-out: NF-κB Inhibition at 72 h IC50 ± SEM
Description: as §1, with “anti-inflammatory” for “anti-tyrosinase”, “NF-κB” for “tyrosinase”, “Cells” for “HMCB cells”, “450” for “475”

Nrf2 = Nrf2 activation assay, WS1; format: cell-based; details: Homo sapiens, read-out: Activation of Nrf2 production EC50
Description: as §1, with “antioxidant response” for “anti-tyrosinase activity”, “Nrf2 activation” for “tyrosinase inhibition”, “Cells” for “HMCB cells”, “540” for “475”

[6] = target: T2, elastase from porcine pancreas (Sus scrofa, UniProt P00772); assay: Elastase-inhibitory effect assay; format: biochemical; details: for Elastase Inhibition (%): inhibition percentage 'at an IC50', concentration not otherwise stated
T2 construct: elastase from porcine pancreas (7.5 units/mL); from tissue; host or cells: porcine pancreas
Description: The elastase-inhibitory effect was evaluated, implementing the protocol adapted from Tu and Tawata.
A mixture containing N-succinyl-Ala-Ala-Ala-p-nitroanilide (AAAPVN, Merck, Cat. No. 52299-14-6, St. Louis, MO, USA) elastase substrate in 0.1232 M Tris-HCl buffer solution (pH 8) was prepared to achieve a concentration of 1.015 mM. This elastase substrate was combined with 10 μL of the test samples at the same concentrations used as in the viability assay in 96-well plates and pre-incubated at room temperature (25 ± 5 °C) for 10 min. Subsequently, the reaction was initiated by adding 10 μL of elastase from porcine pancreas (7.5 units/mL) in Tris buffer solution to the pre-incubated mixtures. Absorbance was then measured at 410 nm using a microplate reader.

[7] = HMCB cells, L-DOPA as substrate, 12 h, read-out: Tyrosinase inhibitory activity IC50

T2 sequence (P00772 27-266): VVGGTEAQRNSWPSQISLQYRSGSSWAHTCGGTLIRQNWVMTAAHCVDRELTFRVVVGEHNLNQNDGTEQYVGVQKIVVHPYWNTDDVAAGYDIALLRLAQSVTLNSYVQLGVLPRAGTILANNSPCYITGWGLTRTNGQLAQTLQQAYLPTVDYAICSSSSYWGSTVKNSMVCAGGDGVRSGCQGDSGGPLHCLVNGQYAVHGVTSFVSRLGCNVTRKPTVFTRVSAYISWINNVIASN

SMILES: CNC(=O)c1ccccc1NC(=O)/C=C/c1ccc(OC)c(OC)c1 [Compound 1, (E)-2-(3-(3,4-dimethoxyphenyl)acrylamido)-N-methylbenzamide]
- CC50 at 72 h ([1]; THP-1 cells (peripheral blood monocytes), THP-1, NR assay, 72 h, read-out: Viability CC50): 80 µM
- IC50 (tyrosinase in HMCB cells; [7]): 14.2 µM
- IC50 (NF-κB [2]; THP-1, LPS-stimulated, 72 h): 12.7 ± 0.34 µM
- IC50 (NF-κB [3]; HEK001, LPS-stimulated, 72 h): 11.2 ± 0.23 µM
- IC50 (NF-κB [4]; WS1, LPS-stimulated): 11 ± 0.67 µM
- IC50 (NF-κB [5]; LPS-stimulated): 9.82 ± 0.65 µM
- EC50 (Nrf2; WS1, 72 h): 0.268 µM
- Elastase Inhibition (%) [6]: 60.76 ± 1.44%
- IC50 ([6]; read-out: Anti-Elastase IC50): 80.1 ± 1.92 µM

SMILES: O=C(O)c1cc(O)c2ccccc2n1 [Compound 2, 4-hydroxyquinoline-2-carboxylic acid]
- CC50 at 72 h ([1]; Viability CC50): 100 µM
- IC50 (tyrosinase in HMCB cells; [7]): 33.8 µM
- IC50 (NF-κB [2]; THP-1, LPS-stimulated, 72 h): 37.2 ± 0.72 µM
- IC50 (NF-κB [3]; HEK001, LPS-stimulated, 72 h): 35.42 ± 0.12 µM
- IC50 (NF-κB [4]; WS1, LPS-stimulated): 32.7 ± 0.51 µM
- IC50 (NF-κB [5]; LPS-stimulated): 30.7 ± 0.98 µM
- EC50 (Nrf2; WS1, 72 h): 0.361 µM
- Elastase Inhibition (%) [6]: 17.68 ± 1.46%
- IC50 ([6]; read-out: Anti-Elastase IC50): 168 ± 3.09 µM

SMILES: N#C/C(=C\c1ccc(O)cc1)C(=O)O [Compound 3, (E)-2-cyano-3-(4-hydroxyphenyl)acrylic acid]
- CC50 at 72 h ([1]; THP-1, NR assay, 72 h, read-out: Viability CC50): 141 µM
- IC50 (tyrosinase in HMCB cells): 51.5 µM
- IC50 (NF-κB [2]; THP-1, 72 h): 58.8 ± 0.86 µM
- IC50 (NF-κB [3]; HEK001, 72 h): 55.97 ± 0.32 µM
- IC50 (NF-κB [4]): 53.21 ± 0.23 µM
- IC50 (NF-κB [5]): 51.42 ± 0.13 µM
- EC50 (Nrf2; 72 h): 0.983 µM
- IC50 [6]: 192 ± 3.78 µM
- Elastase Inhibition (%) [6]: 6.19 ± 1.44%
